US20130217678A1, “PHARMACEUTICAL AGENT COMPRISING QUINOLONE COMPOUND” (OTSUKA PHARMACEUTICAL CO., LTD., priority 2008, published 2013)

Columns and labels:
[1] = system: human neuroblastoma cell lines SH-SY5Y treated with 1-methyl-4-phenylpyridinium (MPP+); assay: Improvement of mitochondrial function (Alamar Blue mitochondrial oxidation reduction activity) in MPP+-treated SH-SY5Y cells; assay type: cell-based; conditions: 1.5 mM MPP+, relative to cells in DMSO alone = 100%, read-out: Fluorescence Intensity (%); for activity at 0.01 µg/mL: compound 0.01 μg/ml; for activity at 0.03 µg/mL: compound 0.03 μg/ml; for activity at 0.1 µg/mL: compound 0.1 μg/ml; for activity at 0.3 µg/mL: compound 0.3 μg/ml; for activity at 1 µg/mL: compound 1 μg/ml
Protocol: In human neuroblastoma cell lines SH-SY5Y in which mitochondrial function was damaged by MPP^+ treatment (Bollimuntha S. et al., J Biol Chem, 280, 2132-2140 (2005) and Shang T. et al., J Biol Chem, 280, 34644-34653 (2005)), the improvement of mitochondrial function was evaluated on the basis of the measurement value for mitochondrial oxidation reduction activity using Alamar Blue fluorescent dye after the compound addition (Nakai M. et al, Exp Neurol, 179, 103-110 (2003)).
The human neuroblastoma cell lines SH-SY5Y were cultured in Dulbecco's Modified Eagle's Medium containing 10% fetal bovine serum (DMEM containing 50 units/ml penicillin and 50 μg/ml streptomycin as antibiotics) at 37° C. in the presence of 5% carbon dioxide. Cells were scattered on a poly-D-lysine-coated 96-well black plate at a concentration of 3−6×10^4 cells/cm^2 (medium amount: 100 μl/well) and cultured in the medium for two days. Further, the medium was changed to DMEM containing a 1% N2 supplement (N2-DMEM) or to a medium (100 μl/well) in which 1.5 mM MPP^+ was dissolved. The cells were cultured therein for 39 to 48 hours, and then subjected to a mitochondrial oxidation reduction activity measurement system. A sample compound that had been previously dissolved in dimethyl sulfoxide (DMSO) was diluted with N2-DMEM and added in a volume of 10 μl/well 24 hours before the activity measurement (final compound concentration: 0.01 to 1 μg/ml).
After removal of the medium by suction, a balanced salt solution containing 10% Alamar Blue (154 mM sodium chloride, 5.6 mM potassium chloride, 2.3 mM calcium chloride, 1.0 mM magnesium chloride, 3.6 mM sodium hydrogen carbonate, 5 mM glucose, 5 mM HEPES, pH 7.2) was added in a volume of 100 μl/well, and reacted in an incubator at 37° C. for 1 hour. The fluorescent intensity was detected using a fluorescence detector (a product of Hamamatsu Photonics K.K., excitation wavelength: 530 nm, measurement wavelength: 580 nm) to thereby measure the mitochondrial oxidation reduction activity.
The fluorescent intensity of the well of the cells cultured in a medium containing MPP^+ and each of the sample compounds was relatively evaluated based on the 100% fluorescent intensity of the well of the cells cultured in a medium containing DMSO alone (final concentration: 0.1%).

Compound	activity at 0.01 µg/mL [1] [%]	activity at 0.03 µg/mL [1] [%]	activity at 0.1 µg/mL [1] [%]	activity at 0.3 µg/mL [1] [%]	activity at 1 µg/mL [1] [%]	melting point [°C]
CCCOc1ccc(OC)c2c(=O)c(-c3ccc(Cl)cc3Cl)c[nH]c12 [Example 38, 3-(2,4-Dichlorophenyl)-5-methoxy-8-propoxy-1H-quinolin-4-one]	47	54	67	75	65	125
CCCOc1ccc(OC)c2c(=O)c(-c3cccc4ccccc34)c[nH]c12 [Example 51, 5-Methoxy-3-naphthalen-1-yl-8-propoxy-1H-quinolin-4-one]	37	45	54	65	49	130 to 133
CCCOc1ccc(C)c2c(=O)c(-c3ccsc3)c[nH]c12 [Example 58, 5-Methyl-8-propoxy-3-thiophen-3-yl-1H-quinolin-4-one]	42	53	60	61	55	104 to 107
CCCOc1ccc(C)c2c(=O)c(-c3ccc4c(c3)OCO4)c[nH]c12 [Example 60, 3-Benzo[1,3]dioxol-5-yl-5-methyl-8-propoxy-1H-quinolin-4-one]	52	65	75	70	44	110 to 115
CCCOc1ccc(C)c2c(=O)c(-c3csc4ccccc34)c[nH]c12 [Example 63, 3-Benzo[b]thiophen-3-yl-5-methyl-8-propoxy-1H-quinolin-4-one]	40	48	57	43	21	80 to 82
CCCOc1ccc(COC)c2c(=O)c(-c3ccc(OC)cc3)c[nH]c12 [Example 64, 5-Methoxymethyl-3-(4-methoxyphenyl)-8-propoxy-1H-quinolin-4-one]	51	56	63	53	38	81 to 83
COc1ccc(-c2c[nH]c3c(N4CCCC4)ccc(C)c3c2=O)cc1 [Example 68, 3-(4-Methoxyphenyl)-5-methyl-8-pyrrolidin-1-yl-1H-quinolin-4-one]	49	56	62	57	33	177 to 178
CCCCc1ccc(C(=O)N(C)C)c2c(=O)c(-c3ccc(OC)cc3)c[nH]c12 [Example 82, 8-Butyl-3-(4-methoxyphenyl)-4-oxo-1,4-dihydroquinolin-5-carboxylic acid dimethylamide]	63	62	62	69	81	198 to 200
COc1ccc(-c2c[nH]c3c(OCC4CC4)cc(C)c(C)c3c2=O)cc1 [Example 83, 8-Cyclopropylmethoxy-3-(4-methoxyphenyl)-5,6-dimethyl-1H-quinolin-4-one]	65	70	67	62	29	99 to 101
COc1ccc(-c2c[nH]c3c(Br)ccc(C)c3c2=O)cc1 [Example 86, 8-Bromo-3-(4-methoxyphenyl)-5-methyl-1H-quinolin-4-one]	60	65	65	65	52	185 to 186
CCCOc1ccc(C(=O)N(C)C)c2c(=O)c(-c3ccc(OC)cc3)c[nH]c12 [Example 87, 3-(4-Methoxyphenyl)-4-oxo-8-propoxy-1,4-dihydroquinolin-5-carboxylic acid dimethylamide]	57	57	60	65	66	218 to 220
CCCOc1ccc(C)c2c(=O)c(-c3ccncc3)c[nH]c12 [Example 95, 5-Methyl-8-propoxy-3-pyridin-4-yl-1H-quinolin-4-one]	51	56	57	61	47	112 to 113
COc1ccc(-c2c[nH]c3c(-c4ccco4)ccc(C)c3c2=O)cc1 [Example 96, 8-Furan-2-yl-3-(4-methoxyphenyl)-5-methyl-1H-quinolin-4-one]	54	64	68	60	23	129 to 131
COc1ccc(OCC2CC2)c2[nH]c(C)c(-c3ccco3)c(=O)c12 [Example 109, 8-Cyclopropylmethoxy-3-furan-2-yl-5-methoxy-2-methyl-1H-quinolin-4-one]	49	62	65	82	73	189 to 190
